Results published in US10219990B2, “Solubilizing agents for UV filters in cosmetic formulations” (BASF SE, priority 2014, dated 2019).

Assay: Solubility tests of UV filters in solubilizing agents
Assay type: physicochemical
Conditions: stirred seven days at 25° C., UV/Vis-spectrometry; for Solubility [%] of UV filter compound of formula (BPH-02) in solubilizing agent: UV filter (BPH-02); for Solubility [%] of UV filter compound of formula (HTP-02) in solubilizing agent: UV filter (HTP-02); for Solubility [%] of UV filter compound of formula (TAT-02) in solubilizing agent: UV filter (TAT-02)
Method: 2 ml of the solubilizing agent are filled into a 20 ml vial with cap. Afterwards 0.02 g (1%) of the respective substance (UV Filter) are weighed and added to the solvent. The vial is placed into a thermostat-controlled water bath, wherein the suspension/solution is stirred during seven days at 25° C.
If the substance added to the solubilizing agent is fully soluble, additional substance is added until precipitation can be observed.
After seven days, the sample is centrifuged for 30 minutes at 13000 rpm at 25° C. The supernatant is transferred into a small beaker. In case the sample is still turbid, it is filtered through a 0.2 μm non-steril Membrex 25 PET filter. Clear solutions must not be filtered. When a clear solution is obtained, the concentration of the substance is determined with UV/Vis-spectrometry. For this purpose, the sample may be diluted with a suitable solvent or, in case of lower concentrations, may be measured as it s.
The concentration of the UV-spectroscopic results is measured with the extinction coefficient, which is determined independently with a solvent of similar polarity like that one used for dilution of the saturated solutions.
The solubility can be calculated using the Lambert-Beer-Law equation.

C 23-Guerbet-monolactate
Solubility [%] of UV filter compound of formula (BPH-02) in solubilizing agent: 11.2%
Solubility [%] of UV filter compound of formula (HTP-02) in solubilizing agent: 2.9%
Solubility [%] of UV filter compound of formula (TAT-02) in solubilizing agent: 11.9%

CCCCCCCCCC(=O)N(C)C [Spectrasolv DMDA, reference compound]
Solubility [%] of UV filter compound of formula (BPH-02) in solubilizing agent: >40%
Solubility [%] of UV filter compound of formula (HTP-02) in solubilizing agent: 40%
Solubility [%] of UV filter compound of formula (TAT-02) in solubilizing agent: 23%

Iso-C18-monolactate
Solubility [%] of UV filter compound of formula (BPH-02) in solubilizing agent: 12.2%
Solubility [%] of UV filter compound of formula (HTP-02) in solubilizing agent: 3.3%
Solubility [%] of UV filter compound of formula (TAT-02) in solubilizing agent: 13.4%
